Experimental data reported in patent US6800618B2, “Chemosensitizing agents against chloroquine resistant plasmodium falciparum and methods of making and using thereof” (The United States of America as represented by the …, priority 2001, dated 2004).

Tests used:
[1] = test system: TM91C235 cells; assay: In vitro reversal activity (cell growth suppression, 3H-hypoxanthine incorporation) in TM91C235 cells; type: cell-based, Plasmodium falciparum; conditions: for Control % sup: test compounds only
Excerpt: For quantitative in vitro drug susceptibility testing, two well characterized P. falciparum clones, W2 and D6, were used. See Oduola et al. (1988) Exp Parasitol 66:86-95, which is herein incorporated by reference. W2 is a clone of the Indochina I isolate and is resistant to chloroquine and pyrimethamine, but susceptible to mefloquine. D6 is a clone from the Sierra I/UNC isolate and is susceptible to chloroquine and pyrimethamine, but has reduced susceptibilities to mefloquine and halofantrine. TM91C235 was isolates from Thailand and is highly resistant to mefloquine, chloroquine, and quinine.
The in vitro antimalarial drug susceptibility assay used is a modification of the procedures first published by Desjardins, et al. with modifications developed by Milhous, et al. See Desjardins, R. E., et al. (1979) Antimicrobial Agents Chemother 16:710-718; and Milhous, et al. (1985) Antimicrobial Agents Chemother 27:525-530, which are herein incorporated by reference. In brief, the assay is based on the incorporation of radiolabeled hypoxanthine by the parasites and inhibition of isotope incorporation is attributed to activity of known or candidate antimalarial drugs. For each assay, proven antimalarials, such as chloroquine, mefloquine, quinine, artemisinin, pyrimethamine and sulfadoxine, were used as controls. The incubation period was 66 hours and the starting parasitemia was 0.2% with a 1% hematocrit. The media used was RPMI-1640 culture media with no folate or p-aminobenzoic acid (PABA). Albumax may be used instead of 10% normal heat inactivated human plasma.
If a candidate compound was tested without any prior knowledge of its activity or solubility, the compound was dissolved directly in dimethylsulfoxide (DMSO) and diluted 400 fold with complete culture media. These unknown compounds were normally started at a highest concentration of about 50,000 ng/ml. The compounds were then diluted 2-fold, 11 times, to give a concentration range of about 1,048-fold. These dilutions were performed automatically by a Biomek 1000 or 2000 Liquid Handling System into 96-well microtiter plates.
(§1) 25 μl of each diluted candidate compound was then transferred to test plates, 200 μl of parasitized erythrocytes (0.2% parasitemia and 1% hematocrit) were added, and incubated at 37° C. in a controlled environment of 5% CO2, 5% O2 and 90% N2. After 42 hours, 25 μl of ^3H-hypoxanthine was added and the plates were incubated for an additional 24 hours. At the end of the 66 hour incubation period, the plates were frozen at −70° C. to lyse the red cells and later thawed and harvested onto glass fiber filter mats by using a 96-well cell harvester. The filter mats were then counted in a scintillation counter and the data was analyzed.
Each of these test compounds were tested under three different concentrations, 5000, 500, and 50 ng/ml, in the presence of 10 ng/ml of chloroquine and 5 ng/ml of mefloquine. […] Thus, the compounds of the present invention may be used to treat, prevent or inhibit drug resistant malaria.

[2] = test system: TM91C235; assay: FIC index in TM91C235 isolate; type: cell-based, Plasmodium falciparum; parameters: key: 1.0 = additive; <1.0 = synergy; >1.0 = antagonism; conditions: isolate from Southeast Asia (Thailand); same method as for W-2
Protocol: Fifty percent inhibitory concentrations (IC50s) were determined for each candidate compound alone and for candidate compounds in fixed combinations of their respective IC50s (1:1, 1:3, 3:1). […] The FIC is the actual IC50 of one compound in the presence of a second compound but is expressed as a fraction of its IC50 when used alone. This index is a mathematical representation of the isobologram such that an FIC index of 1.0 represents the line of additive on the isobologram. An FIC index of less than 1.0 represents synergy or potentiation and an FIC index of greater than 1.0 represents antagonism.
The same assay method described above for W-2 was used except that the strains used were isolated from Thailand, Brazil, and Peru, respectively.

[3] = test system: RCS; assay: FIC index in RCS isolate; type: cell-based, Plasmodium falciparum; parameters: key: 1.0 = additive; <1.0 synergy; >1.0 antagonism; conditions: isolate from Brazil; same method as for W-2
Protocol: (§2) Fifty percent inhibitory concentrations (IC50s) were determined for each candidate compound alone and for candidate compounds in fixed combinations of their respective IC50s (1:1, 1:3, 3:1). […] See Elion, G. V., et al. (1954) J Biol Chem 208:477-488, which is herein incorporated by reference. The FIC is the actual IC50 of one compound in the presence of a second compound but is expressed as a fraction of its IC50 when used alone. This index is a mathematical representation of the isobologram such that an FIC index of 1.0 represents the line of additive on the isobologram. An FIC index of less than 1.0 represents synergy or potentiation and an FIC index of greater than 1.0 represents antagonism.
(§3) Parasites from different regions responded differently to the compounds of the present invention. The same assay method described above for W-2 was used except that the strains used were isolated from Thailand, Brazil, and Peru, respectively.

[4] = test system: Peruvian PC49; assay: FIC index in Peruvian PC49 isolate; type: cell-based, Plasmodium falciparum; parameters: key: 1.0 = additive; <1.0 synergy; >1.0 antagonism; conditions: isolate from South America (Peru); same method as for W-2
Protocol: as §2, §3

[5] = test system: Plasmodium falciparum W2 clone; assay: FIC index with chloroquine (isobologram analysis) in W2 clone; type: cell-based; parameters: key: 1.0 = additive; <1.0 = synergy; >1.0 = antagonism; conditions: 1:1 combination of drug and chloroquine; chloroquine-resistant W2 clone
Protocol: In brief, the assay is based on the incorporation of radiolabeled hypoxanthine by the parasites and inhibition of isotope incorporation is attributed to activity of known or candidate antimalarial drugs. For each assay, proven antimalarials, such as chloroquine, mefloquine, quinine, artemisinin, pyrimethamine and sulfadoxine, were used as controls. The incubation period was 66 hours and the starting parasitemia was 0.2% with a 1% hematocrit. […] Albumax may be used instead of 10% normal heat inactivated human plasma.
as §1
The FIC is the actual IC50 of one compound in the presence of a second compound but is expressed as a fraction of its IC50 when used alone. This index is a mathematical representation of the isobologram such that an FIC index of 1.0 represents the line of additive on the isobologram. An FIC index of less than 1.0 represents synergy or potentiation and an FIC index of greater than 1.0 represents antagonism.
In the isobologram graphs as shown in FIGS. 1-3, the x-axis is fractional inhibitory concentration (FIC) of chloroquine and the y-axis is FIC of chemosensitizing agent. The FIC is the actual IC50 of one drug in the presence of the second drug but is expressed as a fraction of its IC50 when used alone. If the isobologram graph is a straight line, it represents an additive effect of the two drugs. If the graph forms a concave curve below the line, it indicates synergy or potentiation of the combination. Below the line means synergy or potentiation and above the line means antagonism.

[6] = test compound 50 ng/ml combined with 5 ng/ml mefloquine
[7] = test compound 500 ng/ml combined with 5 ng/ml mefloquine
[8] = test compound 500 ng/ml combined with 10 ng/ml chloroquine
[9] = test compound 5000 ng/ml combined with 5 ng/ml mefloquine
[10] = test compound 5000 ng/ml combined with 10 ng/ml chloroquine

Row | Structure (SMILES) | Mefloquine % SUP [1, 6] | Chloroquine % sup ([1]; test compound 50 ng/ml combined with 10 ng/ml chloroquine) | Mefloquine % SUP [1, 7] | Chloroquine % sup [1, 8] | Mefloquine % SUP [1, 9] | Chloroquine % sup [1, 10] | Control % sup ([1]; 50 ng/ml) | Control % sup ([1]; 500 ng/ml) | Control % sup ([1]; 5000 ng/ml) | FIC index TM91C235 [2] | FIC index RCS [3] | FIC index Peruvian PC49 [4] | FIC (fractional inhibitory concentration) index [5]
1 | CCN(CC)CCCCN1c2ccccc2Sc2ccccc21 [7b, 10-(4-Diethylaminobutyl)phenothiazine] | 17% | 31% | 30% | 99% | 100% | 100% | 26% | 38% | 100% | 0.29 | 0.41 | 0.41 | 0.23
2 | CN(C)CCCCN1c2ccccc2CCc2ccccc21 [7i, 5-(4-Dimethylaminobutyl)iminodibenzyl] | 43% |  | 70% | 99% | 95% | 100% | 59% | 73% | 96% | 0.26 | 0.52 | 0.62 | 0.23
3 | CCN(CC)CCCCN1c2ccccc2CCc2ccccc21 [7j, 5-(4-Diethylaminobutyl)iminodibenzyl] | 64% |  | 95% | 100% | 100% | 100% | 62% | 95% | 100% | 0.41 | 0.57 | 0.57 | 0.39
4 | c1ccc2c(c1)CCc1ccccc1N2CCCCN1CCCCC1 [7n, 5-(4-Piperidin-1-yl-butyl) iminodibenzyl] |  |  |  |  |  |  |  |  |  | 0.54 | 0.36 | 0.73 | 0.45
5 | c1ccc2c(c1)CCc1ccccc1N2CCCCN1CCOCC1 [7o, 5-(4-Morpholin-4-yl-butyl)iminodibenzyl] |  |  |  |  |  |  |  |  |  | 0.54 | 0.89 | 0.78 | 0.31
6 | CCN(CC)CCCCCN1c2ccccc2CCc2ccccc21 [7u, 5-(5-Diethylaminopentyl)iminodibenzyl] |  |  |  |  |  |  |  |  |  | 0.48 | 0.36 | 0.82 | 0.44
7 | c1ccc2c(c1)CCc1ccccc1N2CCCCCN1CCCC1 [7v, 5-(5-Pyrrolidin-1-yl-pentyl)iminodibenzyl] |  |  |  |  |  |  |  |  |  | 0.55 | 0.37 | 0.59 | 0.48
8 | c1ccc2c(c1)CCc1ccccc1N2CCCCCCN1CCCC1 [7x, 5-(6-Pyrrolidin-1-yl-hexyl)iminodibenzyl] |  |  |  |  |  |  |  |  |  | 0.54 | 0.60 | 0.92 | 0.57
9 | c1ccc2c(c1)Sc1ccccc1N2CCCCN1CCCC1 [compound 7e, 10-(4-Pyrrolidin-1-yl-butyl)phenothiazine] | 33% |  | 67% | 99% | 95% | 100% | 38% | 70% | 96% | 0.25 | 0.51 | 0.5 | 0.21
10 | c1ccc2c(c1)CCc1ccccc1N2CCCCN1CCCC1 [compound 7m, 5-(4-Pyrrolidin-1-yl-butyl)iminodibenzyl] | 64% |  | 96% | 100% | 100% | 100% | 58% | 98% | 100% | 0.42 | 0.51 | 0.66 | 0.32
